Here are results for two compounds from paper PMC6508677, “Identification of druggable small molecule antagonists of the Plasmodium falciparum hexose transporter PfHT and assessment of ligand access to the glucose permeation pathway via FLAG-mediated protein engineering” (PLoS ONE, 2019).

SMILES strings stand for the structures. Values joined by “and” are separate entries in the source; they are usually repeats but may differ in a detail not shown here. Equal entries are not always repeated. Where two headings read alike, the source gives them in different places.

The target of one assay is T1, hGLUT8 (Homo sapiens, UniProt Q9NY64, E7R/E8R).
T1 construct: expressed in transfected cells; host or cells: HEK293 (HEK293-FLIP, native hGLUT1 knocked down)
T1 sequence (Q9NY64 1-477 E7R/E8R): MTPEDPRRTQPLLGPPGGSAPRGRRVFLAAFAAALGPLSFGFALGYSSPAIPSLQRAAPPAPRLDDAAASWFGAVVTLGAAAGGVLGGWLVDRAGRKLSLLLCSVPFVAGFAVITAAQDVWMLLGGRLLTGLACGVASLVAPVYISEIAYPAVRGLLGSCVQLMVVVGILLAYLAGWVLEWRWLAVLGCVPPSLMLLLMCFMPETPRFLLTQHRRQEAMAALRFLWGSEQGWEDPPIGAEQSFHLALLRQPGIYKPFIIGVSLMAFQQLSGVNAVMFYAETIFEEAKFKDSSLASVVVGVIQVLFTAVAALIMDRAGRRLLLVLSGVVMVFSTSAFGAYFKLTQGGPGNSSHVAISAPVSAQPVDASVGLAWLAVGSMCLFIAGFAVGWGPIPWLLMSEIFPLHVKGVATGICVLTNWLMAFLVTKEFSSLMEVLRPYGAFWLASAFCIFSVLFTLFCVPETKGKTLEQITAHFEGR
Put plainly: [3H]-D-fructose uptake by HEK293 cells overexpressing hGLUT8. Format: cell-based. An excerpt: Generation of HEK293 cells overexpressing PfHT and human GLUTs 1–4 were described elsewhere. Briefly, HEK293 cells were transfected with pcDNA3.1 FLII12Pglu-7006 (Addgene), containing the fluorescence resonance energy transfer (FRET) glucose sensor (HEK293-FLIP) and PfHT, human GLUT1 (hGLUT1), hGLUT2, hGLUT3, hGLUT4, hGLUT5 or hGLUT8 using Optifect (Life Technologies) according to manufacturer’s specifications. To increase retention of GLUT8 at the plasma membrane, the dileucine sorting signal E^7E^8XXXLL was modified to R^7R^8XXXLL as described in [17]. Stable transfectants were selected for G418 and hygromycin resistance to select for FRET sensor and hexose transporter, respectively. HEK293-FLIP cells were also used to generate cells stably transfected with FLAG-tagged PfHT (FTPfHT). FLAG tag ([…]) followed by a triple glycine linker and a tobacco etch virus (TEV) protease site (ENLYFQS) followed by a triple glycine linker was added to the N-terminus of PfHT via PCR [18] using Phusion Hot Start II High-Fidelity DNA Polymerase (Fisher Scientific). Single clones were selected by comparing their abilities to transport glucose as assayed via FRET and radiolabeled hexose uptake. In all cell lines, except for HEK293 cells overexpressing hGLUT1 and hGLUT5, native hGLUT1 was knocked down using shRNA as described elsewhere. Transcript levels of the individual GLUTs expressed in each cell line are as described in [13, 15] and in S1 Fig.
(§1) Glucose uptake by P. falciparum was performed essentially as described. P. falciparum strain 3D7 was cultured in 100 mm tissue culture dishes (Techno Plastic Products) in a 2% suspension of human erythrocytes and RPMI 1640 medium until reaching > 7.5% parasitemia. Cells were pelleted via centrifugation and resuspended in RPMI 1640 medium. To determine the uptake of radiolabeled glucose into the parasite, parasites were isolated from infected erythrocytes by permeablization with saponin (0.05 w/v), followed by centrifugation, aspiration of supernatant and washing of the pellet 3X with saline solution (135 mM NaCl, 2 mM KCl, 25 mM HEPES, 0.2 mM glucose and 1 mM MgCl2; pH 7.1) to remove cellular debris. WU-1 or DMSO vehicle were added to 100 μl parasites (resuspended in saline) 5 min prior to the addition of 100 μl [^14C]2-DOG (0.2- μCi/ml final concentration). 2-DG uptake was stopped after 2 min by layering the entire reaction over 300 μl of an oil mixture (5:4 mix of dibutyl phthalate / dinonyl phthalate) in Eppendorf tubes and centrifuged at 15,850 × g for 2 mins. The ratio of the estimated intracellular concentration of radiolabel relative to the extracellular concentration were calculated as described. Uptake of radiolabeled hexose into HEK293 cells was measured in glucose-free HBSS as described previously. Briefly, cells were plated at 400,000 cells/well overnight at 37°C in 24-well plates pre-treated with PEI. After 30-min incubation at 37°C in glucose-free HBSS in the presence of vehicle or increasing concentrations of compound, 2-DG uptake was measured in glucose-free HBSS for 4 min at 37°C. Cultures were washed in ice-cold 1X PBS and lysed in 0.1% Triton X-100 in 1X PBS. Radiolabeled hexose uptake was determined by liquid scintillation counting (Ultima Gold, Thermo Fisher) and normalized to total protein per well. Uptake data are plotted as percent uptake relative to vehicle-treated cells. Kinetic analyses were performed using the indicated concentrations of substrate and WU-1, with quenching of uptake after 1 min incubation. Incubation times had been previously determined as being in the linear range of time-dependent radiolabeled hexose uptake (2 min for 2-DG uptake into freed parasites; 2 and 4 min for D-Frc and 2-DG uptake HEK cell lines, respectively). Data were fit by least squares nonlinear regression analysis using GraphPad Prism 6.0 software.

The subject of assay [1] is P. falciparum strain 3D7 freed parasites. Put plainly: 2-DG uptake by isolated freed P. falciparum parasites. The assay is classed as cell-based, Plasmodium falciparum. The procedure:
as §1

The next assay relates to GLUT1 Y293I. Set-up: method as in PMID 8157690. Particulars: GLUT1 Y293I vs wild type; cited from earlier work.
Where [2] appears, read: HEK293, 2 min, read-out: D-frc Uptake AVE.

As a reminder, the IC50 is the concentration needed to halve the response being measured. Regarding `Cc1ccc(S(=O)(=O)CCNC(=O)c2c(-c3c(Cl)cccc3Cl)noc2C)cc1` [WU-1, 3-(2,6-dichlorophenyl)-5-methyl-N-[2-(4-methylbenzenesulfonyl)ethyl]-1,2-oxazole-4-carboxamide], the IC50 on hGLUT8 (GLUT8, D-frc Uptake, average of Expt 1-3, read-out: AVE IC50) is 22 µM; on hGLUT8 (GLUT8, D-frc Uptake, single experiments Expt 1-3, read-out: IC50) it was 23.3 µM and 19.7 µM and 23.1 µM; at hGLUT8 (GLUT8 cell line, read-out: IC50, D-fructose (Frc) uptake), 22 ± 1.2 µM; in assay [1] (Expt 1-3, read-out: IC50 for 2-DG uptake by freed parasites, individual experiments), 6.6 µM and 4.5 µM; in assay [1] (Plasmodium falciparum, 3D7, Expt 1-3, read-out: IC50 for 2-DG uptake by freed parasites, individual experiments), 7.2 µM; in assay [1] (Plasmodium falciparum, 3D7, isolated P. falciparum trophozoites, mean, read-out: IC50 for 2-DG uptake by freed parasites), 6.1 ± 0.8 µM. For the same compound, the remaining activity at 0.001 µM on hGLUT8 (HEK293, 2 min, GLUT8, concentration 0.001 µM, Expt 1-3, read-out: D-frc Uptake AVE) came to 100%. Moreover, on hGLUT8 (HEK293, 2 min, GLUT8, concentration 0.313 µM, read-out: D-frc Uptake AVE), the remaining activity at 0.313 µM is 96.4%. Moreover, the remaining activity at 0.625 µM came out at 90% at hGLUT8 (HEK293, 2 min, GLUT8, concentration 0.625 µM, read-out: D-frc Uptake AVE) and 91.6% at hGLUT8 (setting [2]). For the same compound, the remaining activity at 1.25 µM at hGLUT8 (HEK293, 2 min, GLUT8, concentration 1.250 µM, read-out: D-frc Uptake AVE) turned out to be 89.1%. Also, the remaining activity at 2.5 µM was found to be 86% at hGLUT8 (HEK293, 2 min, GLUT8, concentration 2.500 µM, read-out: D-frc Uptake AVE) and 84.6% at hGLUT8 (setting [2]). The remaining activity at 5 µM on hGLUT8 (HEK293, 2 min, GLUT8, concentration 5.0 µM, read-out: D-frc Uptake AVE) is 78.5%. In addition, at hGLUT8 (HEK293, 2 min, GLUT8, concentration 10.0 µM, read-out: D-frc Uptake AVE), the remaining activity at 10 µM came to 71.4%. The remaining activity at 20 µM at hGLUT8 (HEK293, 2 min, GLUT8, concentration 20 µM, read-out: D-frc Uptake AVE) is 53%. Besides, the remaining activity at 40 µM on hGLUT8 (HEK293, 2 min, GLUT8, concentration 40 µM, read-out: D-frc Uptake AVE) was determined as 46.1%. At hGLUT8 (HEK293, 2 min, GLUT8, concentration 80 µM, read-out: D-frc Uptake AVE), the remaining activity at 80 µM turned out to be 30.5%. Further, the remaining activity at 160 µM at hGLUT8 (HEK293, 2 min, GLUT8, concentration 160 µM, read-out: D-frc Uptake AVE) was 24.8%. In addition, the remaining activity at 225 µM on hGLUT8 (HEK293, 2 min, GLUT8, concentration 225 µM, read-out: D-frc Uptake AVE) worked out at 22.6%. The “Selectivity Index (PfHT over GLUT8), Frc” value on hGLUT8 (calculated from IC50s) is given as 4.4. The “2-DG uptake by freed parasites (normalised to 100), AVE per experiment” value in assay [1] (0.001 µM WU-1) is 100.00; in assay [1] (8.33 µM WU-1), 54.38 and 56.80 and 54.68; in assay [1] (25 µM WU-1), 40.52 and 37.08 and 35.20; in assay [1] (75 µM WU-1), 20.23 and 31.42 and 24.43; in assay [1] (225 µM WU-1) it was 17.01 and 18.91 and 19.76.
Turning to `C=C1[C@@H](C)[C@H]2[C@H](Cc3ccccc3)NC(=O)[C@]23OC(=O)/C=C/[C@H](O)CCC[C@@H](C)C/C=C/[C@H]3[C@@H]1O` [CB, cytochalasin B], the “increase of Ki by Y293I mutation” value in the assay on GLUT1 Y293I is given as > 100 fold.
